In US12655116B2, “Substituted isophthalic acid diamides” (Bayer Aktiengesellschaft, priority 2020, dated 2026):

Legend:
ABUTH [1] = experiment: Pre-emergence herbicidal action against ABUTH; assay type: in vivo, Abutilon theophrasti; details: for Pre-emergence action against ABUTH (herbicidal activity): 80 g/ha, scored visually after 3 weeks vs untreated controls (100% = plants have died, 0% = like control plants); for Pre-emergence action against ABUTH (herbicidal activity in percent): dosage 20 g/ha, scored visually after 3 weeks vs untreated controls, 100% = plants have died, 0% = like control plants
Summary of the method: (§1)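 Herbicidal effect was assessed 3 weeks after treatment by visual comparison with untreated controls, 100% denoting dead plants. Aqueous WP or EC preparations had been applied at 600 to 800 l/ha with 0.2% wetting agent to the soil covering freshly sown seeds.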

ALOMY = experiment: Pre-emergence herbicidal action against ALOMY; assay type: in vivo, Alopecurus myosuroides; details: 80 g/ha, pre-emergence, scored visually after 3 weeks vs untreated controls (100% = plants have died, 0% = like control plants)
Summary of the method: as §1

AMARE [2] = experiment: Pre-emergence herbicidal action against AMARE; assay type: in vivo, Amaranthus retroflexus
Summary of the method: as §1

AVEFA [3] = experiment: Pre-emergence herbicidal action against AVEFA; assay type: in vivo, Avena fatua; details: 80 g/ha, pre-emergence
Summary of the method: as §1

ECHCG [4] = experiment: Pre-emergence herbicidal action against ECHCG; assay type: in vivo, Echinochloa crus-galli; details: 80 g/ha
Summary of the method: as §1

MATIN [5] = experiment: Pre-emergence herbicidal action against MATIN; assay type: in vivo, Matricaria inodora
Summary of the method: as §1

POLCO = experiment: Pre-emergence herbicidal action against POLCO; assay type: in vivo, Polygonum convolvulus
Summary of the method: as §1

SETVI [6] = experiment: Pre-emergence herbicidal action against SETVI; assay type: in vivo, Setaria viridis; details: dosage 80 g/ha
Summary of the method: as §1

STEME [7] = experiment: Pre-emergence herbicidal action against STEME; assay type: in vivo, Stellaria media
Summary of the method: as §1

VIOTR [8] = experiment: Pre-emergence herbicidal action against VIOTR; assay type: in vivo, Viola tricolor; details: dosage 80 g/ha
Summary of the method: as §1

DIGSA [9] = experiment: Pre-emergence herbicidal action against DIGSA; assay type: in vivo, Digitaria sanguinalis
Summary of the method: as §1

ABUTH [10] = experiment: Post-emergence herbicidal action against ABUTH; assay type: in vivo, Abutilon theophrasti; details: visual assessment about 3 weeks after treatment vs untreated controls
Summary of the method: (§2)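 Herbicidal effect was scored visually in percent after about 3 weeks in the greenhouse. Plants had been raised in sandy loam and treated post-emergence at the one-leaf stage with formulated compound at 600 to 800 l/ha water plus 0.2% wetting agent.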

AMARE [11] = experiment: Post-emergence herbicidal action against AMARE; assay type: in vivo, Amaranthus retroflexus; details: 20 g/ha, visual assessment about 3 weeks after treatment, 100% = plants have died, 0% = like control plants
Summary of the method: as §2

AVEFA [12] = experiment: Post-emergence herbicidal action against AVEFA; assay type: in vivo, Avena fatua; details: 20 g/ha, visual assessment about 3 weeks after treatment, 100% = plants have died, 0% = like control plants
Summary of the method: as §2

MATIN [13] = experiment: Post-emergence herbicidal action against MATIN; assay type: in vivo, Matricaria inodora
Summary of the method: as §2

PHBPU = experiment: Post-emergence herbicidal action against PHBPU; assay type: in vivo, Pharbitis purpurea
Summary of the method: as §2

STEME [14] = experiment: Post-emergence herbicidal action against STEME; assay type: in vivo, Stellaria media
Summary of the method: as §2

VIOTR [15] = experiment: Post-emergence herbicidal action against VIOTR; assay type: in vivo, Viola tricolor
Summary of the method: as §2

ECHCG [16] = experiment: Post-emergence herbicidal action against ECHCG; assay type: in vivo, Echinochloa crus-galli
Summary of the method: as §2

SETVI [17] = experiment: Post-emergence herbicidal action against SETVI; assay type: in vivo, Setaria viridis
Summary of the method: as §2

DIGSA [18] = experiment: Post-emergence herbicidal action against DIGSA; assay type: in vivo, Digitaria sanguinalis
Summary of the method: as §2

[19] = 20 g/ha, scored visually after 3 weeks vs untreated controls, 100% = plants have died, 0% = like control plants
[20] = 80 g/ha, scored visually after 3 weeks vs untreated controls (100% = plants have died, 0% = like control plants)

With CCCn1nnnc1NC(=O)c1ccc(C(F)(F)F)c(C(=O)NCC)c1Br [Example 3-208] the “Pre-emergence action against ABUTH (herbicidal activity)” value (ABUTH [1]) was 100%, the “Pre-emergence action against ABUTH (herbicidal activity in percent)” value (ABUTH [1]) was 100% and the “Pre-emergence action against ALOMY (herbicidal activity)” value (ALOMY) was 90%. For the same compound, the “Pre-emergence action against AMARE in %” value (AMARE [2]; [19]) was 100%, the “Pre-emergence action against AMARE in %” value (AMARE [2]; [20]) was 100% and the “Pre-emergence action against AVEFA in %” value (AVEFA [3]) was 100%. For the same compound, the “Pre-emergence action against ECHCG in %” value (ECHCG [4]) was 80%, the “Pre-emergence action against MATIN in %” value (MATIN [5]; dosage 20 g/ha) was 100% and the “Pre-emergence action against MATIN in %” value (MATIN [5]; dosage 80 g/ha) was 100%. The “Pre-emergence action against POLCO in %” value (POLCO; dosage 80 g/ha) was 80%, the “Pre-emergence action against SETVI in %” value (SETVI [6]) was 100% and the “Pre-emergence action against STEME in %” value (STEME [7]; dosage 20 g/ha) was 90%. For the same compound, the “Pre-emergence action against STEME in %” value (STEME [7]; dosage 80 g/ha) was 100%, the “Pre-emergence action against VIOTR in %” value (VIOTR [8]) was 100% and the “Pre-emergence action against DIGSA in %” value (DIGSA [9]; dosage 80 g/ha) was 80%. For the same compound, the “Post-emergence action against ABUTH in %” value (ABUTH [10]; dosage 5 g/ha) was 90%, the “Post-emergence action against ABUTH in %” value (ABUTH [10]; dosage 20 g/ha) was 90% and the “Post-emergence action at 20 g/ha against AMARE in %” value (AMARE [11]) was 90%. For the same compound, the “Post-emergence action at 20 g/ha against AVEFA in %” value (AVEFA [12]) was 80%, the “Post-emergence action against MATIN in %” value (MATIN [13]; dosage 5 g/ha) was 90% and the “Post-emergence action against MATIN in %” value (MATIN [13]; dosage 20 g/ha) was 90%. For the same compound, the “Post-emergence action against PHBPU in %” value (PHBPU; dosage 5 g/ha) was 80%, the “Post-emergence action against PHBPU in %” value (PHBPU; dosage 20 g/ha) was 90% and the “Post-emergence action against STEME in %” value (STEME [14]; 20 g/ha) was 90%. For the same compound, the “Post-emergence action against STEME in %” value (STEME [14]; dosage 5 g/ha) was 80%, the “Post-emergence action against VIOTR in %” value (VIOTR [15]; 5 g/ha) was 100% and the “Post-emergence action against VIOTR in %” value (VIOTR [15]; 20 g/ha) was 100%.

CNC(=O)c1c(C(F)F)ccc(C(=O)Nc2nnco2)c1SC [Example 5-74] was tested, and the “Pre-emergence action against ABUTH (herbicidal activity)” value (ABUTH [1]) was 100%, the “Pre-emergence action against ABUTH (herbicidal activity in percent)” value (ABUTH [1]) was 80% and the “Pre-emergence action against AMARE in %” value (AMARE [2]; [19]) was 100%. For the same compound, the “Pre-emergence action against AMARE in %” value (AMARE [2]; [20]) was 100%, the “Pre-emergence action against AVEFA in %” value (AVEFA [3]) was 80% and the “Pre-emergence action against ECHCG in %” value (ECHCG [4]) was 90%. The “Pre-emergence action against MATIN in %” value (MATIN [5]; dosage 20 g/ha) was 80%, the “Pre-emergence action against MATIN in %” value (MATIN [5]; dosage 80 g/ha) was 90% and the “Pre-emergence action against POLCO in %” value (POLCO; dosage 20 g/ha) was 80%. For the same compound, the “Pre-emergence action against POLCO in %” value (POLCO; dosage 80 g/ha) was 80%, the “Pre-emergence action against SETVI in %” value (SETVI [6]) was 90% and the “Pre-emergence action against STEME in %” value (STEME [7]; dosage 20 g/ha) was 90%. For the same compound, the “Pre-emergence action against STEME in %” value (STEME [7]; dosage 80 g/ha) was 100%, the “Pre-emergence action against VIOTR in %” value (VIOTR [8]) was 100% and the “Pre-emergence action against DIGSA in %” value (DIGSA [9]; dosage 20 g/ha) was 90%. The “Pre-emergence action against DIGSA in %” value (DIGSA [9]; dosage 80 g/ha) was 100%, the “Post-emergence action against ABUTH in %” value (ABUTH [10]; dosage 5 g/ha) was 90% and the “Post-emergence action against ABUTH in %” value (ABUTH [10]; dosage 20 g/ha) was 90%. For the same compound, the “Post-emergence action at 20 g/ha against AMARE in %” value (AMARE [11]) was 100%, the “Post-emergence action at 20 g/ha against AVEFA in %” value (AVEFA [12]) was 80% and the “Post-emergence action against ECHCG in %” value (ECHCG [16]; dosage 5 g/ha) was 80%. For the same compound, the “Post-emergence action against ECHCG in %” value (ECHCG [16]; dosage 20 g/ha) was 80%, the “Post-emergence action against PHBPU in %” value (PHBPU; dosage 20 g/ha) was 100% and the “Post-emergence action against SETVI in %” value (SETVI [17]; dosage 5 g/ha) was 80%. The “Post-emergence action against SETVI in %” value (SETVI [17]; dosage 20 g/ha) was 90%, the “Post-emergence action against STEME in %” value (STEME [14]; 20 g/ha) was 90% and the “Post-emergence action against STEME in %” value (STEME [14]; dosage 5 g/ha) was 80%. For the same compound, the “Post-emergence action against DIGSA in %” value (DIGSA [18]; 5 g/ha) was 90% and the “Post-emergence action against DIGSA” value (DIGSA [18]; 20 g/ha) was 90%.
